# From patent publication US20250230193A1, “CYCLIC COMPOUND HAVING SELECTIVE KRAS INHIBITORY EFFECT ON HRAS AND NRAS” (CHUGAI SEIYAKU KABUSHIKI KAISHA, priority 2022, published 2025)
# Tests used:
# [1] = biological target: GDP-bound NRAS wild-type protein (Homo sapiens, UniProt P01111); assay: Binding to NRAS by surface plasmon resonance (SPR), Single Cycle Kinetics; details: SPR; KD ratio class
# [2] = biological target: GDP-bound HRAS wild-type protein (Homo sapiens, UniProt P01112); assay: Binding to HRAS by surface plasmon resonance (SPR), Single Cycle Kinetics; details: SPR; KD ratio class
# [3] = tested on: human lung cancer strain NCI-H441; assay: cells; details: NCI-H441, 96 h, read-out: NCI-H441 IC50 (nM)
# GDP-bound HRAS wild-type protein, sequence (P01112 whole entry): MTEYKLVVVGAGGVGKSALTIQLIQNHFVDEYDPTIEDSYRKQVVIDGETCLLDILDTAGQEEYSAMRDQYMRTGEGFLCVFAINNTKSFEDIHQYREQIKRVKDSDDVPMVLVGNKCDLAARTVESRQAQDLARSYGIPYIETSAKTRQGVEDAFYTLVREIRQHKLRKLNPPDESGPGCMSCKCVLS
# GDP-bound NRAS wild-type protein, sequence (P01111 whole entry): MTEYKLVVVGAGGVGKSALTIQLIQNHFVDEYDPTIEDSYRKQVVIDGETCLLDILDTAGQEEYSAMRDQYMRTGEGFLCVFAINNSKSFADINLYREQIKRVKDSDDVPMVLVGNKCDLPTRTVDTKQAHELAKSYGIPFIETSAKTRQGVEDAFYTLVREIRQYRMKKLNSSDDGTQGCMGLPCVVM
IC50 [3],SMILES,NRAS/KRAS (ratio of KD value for GDP-bound NRAS wild-type protein to KD value for KRAS) [1],HRAS/KRAS (ratio of KD value for GDP-bound HRAS wild-type protein to KD value for KRAS) [2]
6.2 nM,CCO[C@@H]1C[C@H]2C(=O)NC3(CCC3)C(=O)N(C)[C@@H](C3CCCC3)C(=O)N(C)[C@H](C(=O)N3CCOCC3)CC(=O)N(C)[C@@H](CC(C)C)C(=O)N[C@@H]([C@@H](C)CC)C(=O)N3CC[C@H]3C(=O)N(C)[C@H]3C[C@@H](C)[C@@H](C)CN(C3=O)[C@@H](Cc3ccc(C(F)(F)F)cc3)C(=O)N(C)CC(=O)N[C@@H](CCc3ccc(C(F)(F)F)c(Cl)c3)C(=O)N2C1 [PP1361],A (a compound having 10 or more and less than 20 is denoted as A),B (a compound having 3 or more and less than 10 is denoted as B)
18.8 nM,CCCOC[C@H]1C(=O)N[C@@H]([C@@H](C)CC)C(=O)N(C)CC(=O)N(C)[C@H]2C/C=C\CCN(C2=O)[C@@H](Cc2ccc(C(F)(F)F)cc2)C(=O)N(C)CC(=O)N[C@@H](CCc2cc(F)c(C(F)(F)F)c(F)c2)C(=O)N2C[C@H](OCC)C[C@H]2C(=O)NC2(CCCC2)C(=O)N(C)[C@@H](C2CCCC2)C(=O)N(C)[C@H](C(=O)N2CCCC2)CC(=O)N1C [PP1399],A (a compound having 10 or more and less than 20 is denoted as A),A (a compound having 10 or more and less than 20 is denoted as A)
18.9 nM,CCO[C@@H]1C[C@H]2C(=O)NC3(CCC3)C(=O)N(C)[C@@H](C3CCCC3)C(=O)N(C)[C@H](C(=O)N(C)C)CC(=O)N(C)[C@@H](CC(C)C)C(=O)N[C@@H]([C@@H](C)CC)C(=O)N(C)CC(=O)N(C)[C@H]3C/C=C\CCN(C3=O)[C@@H](Cc3ccc(C(F)(F)F)cc3)C(=O)N(C)CC(=O)N[C@@H](CCc3cc(F)c(Cl)c(F)c3)C(=O)N2C1 [PP1263],A (a compound having 10 or more and less than 20 is denoted as A),A (a compound having 10 or more and less than 20 is denoted as A)
10.3 nM,CCO[C@@H]1C[C@H]2C(=O)NC3(CCC3)C(=O)N(C)[C@@H](C3CCCC3)C(=O)N(C)[C@H](C(=O)N3CCOCC3)CC(=O)N(C)[C@@H](CC(C)C)C(=O)N[C@@H]([C@@H](C)CC)C(=O)N3CC[C@H]3C(=O)N(C)[C@H]3CC[C@@H](C)CN(C3=O)[C@@H](Cc3ccc(C(F)(F)F)cc3)C(=O)N(C)CC(=O)N[C@@H](CCc3ccc(C(F)(F)F)c(Cl)c3)C(=O)N2C1 [PP1379],A (a compound having 10 or more and less than 20 is denoted as A),B (a compound having 3 or more and less than 10 is denoted as B)
46.6 nM,CCO[C@@H]1C[C@H]2C(=O)NC3(CCC3)C(=O)N(C)[C@@H](C3CCCC3)C(=O)N(C)[C@H](C(=O)N(C)C)CC(=O)N(C)[C@@H](CC3CCCC3)C(=O)N[C@@H]([C@@H](C)CC)C(=O)N(C)CC(=O)N(C)[C@H]3C/C=C\CCN(C3=O)[C@@H](Cc3ccc(C)cc3)C(=O)N(C)CC(=O)N[C@@H](CCc3ccc(Cl)c(Cl)c3)C(=O)N2C1 [PP1487],A (a compound having 10 or more and less than 20 is denoted as A),A (a compound having 10 or more and less than 20 is denoted as A)
118 nM,CCO[C@@H]1C[C@H]2C(=O)NC3(CCC3)C(=O)N(C)[C@@H](C3CCCC3)C(=O)N(C)[C@H](C)CC(=O)N(C)[C@@H](CC3CC3)C(=O)N[C@@H]([C@@H](C)CC)C(=O)N(C)CC(=O)N(C)[C@H]3C/C=C\CCN(C3=O)[C@@H](Cc3ccc(F)cc3C)C(=O)N(C)CC(=O)N[C@@H](CCc3cc(F)c(C(F)(F)F)c(F)c3)C(=O)N2C1 [PP1489],B (a compound having 3 or more and less than 10 is denoted as B),B (a compound having 3 or more and less than 10 is denoted as B)
3 nM,CCO[C@@H]1C[C@H]2C(=O)NC3(CC(C)(C)C3)C(=O)N(C)[C@@H](C3CCCC3)C(=O)N(C)[C@H](C(=O)N(C)C)CC(=O)N(C)[C@@H](CC3CCC3)C(=O)N[C@@H]([C@@H](C)CC)C(=O)N(C)CC(=O)N(C)[C@H]3C/C=C\CCN(C3=O)[C@@H](Cc3ccc(C(F)(F)F)cc3)C(=O)N(C)CC(=O)N[C@@H](CCc3ccc(C(F)(F)F)c(OC)c3)C(=O)N2C1 [PP1564],A (a compound having 10 or more and less than 20 is denoted as A),A (a compound having 10 or more and less than 20 is denoted as A)
3.5 nM,CCO[C@@H]1C[C@H]2C(=O)NC3(CCCC3)C(=O)N(C)[C@@H](C3CCCC3)C(=O)N(C)[C@H](C(=O)N(C)C)CC(=O)N(C)[C@@H](CC)C(=O)N[C@@H]([C@@H](C)CC)C(=O)N(C)CC(=O)N(C)[C@H]3CC[C@@H](C)CN(C3=O)[C@@H](Cc3ccc(C(F)(F)F)cc3)C(=O)N(C)CC(=O)N[C@@H](CCc3ccc(C(F)(F)F)c(Cl)c3)C(=O)N2C1 [PP1376],B (a compound having 3 or more and less than 10 is denoted as B),B (a compound having 3 or more and less than 10 is denoted as B)
3.7 nM,CCO[C@@H]1C[C@H]2C(=O)NC3(CCCC3)C(=O)N(C)[C@@H](C3CCCC3)C(=O)N(C)[C@H](C(=O)N3CCOCC3)CC(=O)N(C)[C@@H](CC)C(=O)N[C@@H]([C@@H](C)CC)C(=O)N(C)CC(=O)N(C)[C@H]3C[C@@H](C)[C@@H](C)CN(C3=O)[C@@H](Cc3ccc(C(F)(F)F)cc3)C(=O)N(C)CC(=O)N[C@@H](CCc3cc(F)c(C(F)(F)F)c(F)c3)C(=O)N2C1 [PP1353],A (a compound having 10 or more and less than 20 is denoted as A),B (a compound having 3 or more and less than 10 is denoted as B)
36.7 nM,CCO[C@@H]1C[C@H]2C(=O)NC3(CCC3)C(=O)N(C)[C@@H](C3CCCC3)C(=O)N(C)[C@H](C(=O)N3CCOCC3)CC(=O)N(C)[C@@H](CC3CC3)C(=O)N[C@@H]([C@@H](C)CC)C(=O)N(C)CC(=O)N(C)[C@H]3C/C=C\CCN(C3=O)[C@@H](Cc3ccc(F)cc3)C(=O)N(C)CC(=O)N[C@@H](CCc3cc(F)c(C(F)(F)F)c(F)c3)C(=O)N2C1 [PP1496],A (a compound having 10 or more and less than 20 is denoted as A),B (a compound having 3 or more and less than 10 is denoted as B)
40.4 nM,CCO[C@@H]1C[C@H]2C(=O)NC3(CCC3)C(=O)N(C)[C@@H](C3CCCC3)C(=O)N(C)[C@H](C(=O)N3CCCC3)CC(=O)N(C)[C@@H](CC3CCCCC3)C(=O)N[C@@H]([C@@H](C)CC)C(=O)N(C)CC(=O)N(C)[C@H]3C/C=C\CCN(C3=O)[C@@H](Cc3ccc(C(F)(F)F)cc3)C(=O)N(C)CC(=O)N[C@@H](CCc3cc(F)c(C(F)(F)F)c(F)c3)C(=O)N2C1 [PP1419],AA (a compound having 20 or more is denoted as AA),A (a compound having 10 or more and less than 20 is denoted as A)
15.9 nM,CCO[C@@H]1C[C@H]2C(=O)NC3(CCC3)C(=O)N(C)[C@@H](C(CC)CC)C(=O)N(C)[C@H](C(=O)N(C)C)CC(=O)N(C)[C@@H](CC(C)C)C(=O)N[C@@H]([C@@H](C)CC)C(=O)N(C)CC(=O)N(C)[C@H]3C/C=C\CCN(C3=O)[C@@H](Cc3ccc(C(F)(F)F)cc3)C(=O)N(C)CC(=O)N[C@@H](CCc3ccc(C(F)(F)F)c(OC)c3)C(=O)N2C1 [PP1209],AA (a compound having 20 or more is denoted as AA),A (a compound having 10 or more and less than 20 is denoted as A)
70.4 nM,CCO[C@@H]1C[C@H]2C(=O)NC3(CCC3)C(=O)N(C)[C@@H](C(CC)CC)C(=O)N(C)[C@H](C(=O)N(C)C)CC(=O)N(C)[C@@H](CC3CCCC3)C(=O)N[C@@H]([C@@H](C)CC)C(=O)N(C)CC(=O)N(C)[C@H]3C/C=C\CCN(C3=O)[C@@H](CC3CCCCC3)C(=O)N(C)CC(=O)N[C@@H](CCc3cc(F)c(C(F)(F)F)c(F)c3)C(=O)N2C1 [PP1430],A (a compound having 10 or more and less than 20 is denoted as A),A (a compound having 10 or more and less than 20 is denoted as A)
49.4 nM,CCO[C@@H]1C[C@H]2C(=O)NC3(CCC3)C(=O)N(C)[C@@H](C(CC)CC)C(=O)N(C)[C@H](C(=O)N(C)C)CC(=O)N(C)[C@@H](CC(C)C)C(=O)N[C@@H]([C@@H](C)CC)C(=O)N(C)CC(=O)N(C)[C@H]3C/C=C\CCN(C3=O)[C@@H](Cc3ccc(F)cc3C)C(=O)N(C)CC(=O)N[C@@H](CCc3cc(F)c(C(F)(F)F)c(F)c3)C(=O)N2C1 [PP1518],A (a compound having 10 or more and less than 20 is denoted as A),B (a compound having 3 or more and less than 10 is denoted as B)
5.1 nM,CCO[C@@H]1C[C@H]2C(=O)NC3(CCCC3)C(=O)N(C)[C@@H](C3CCCC3)C(=O)N(C)[C@H](C(=O)N3CCOCC3)CC(=O)N(C)[C@@H](CC)C(=O)N[C@@H]([C@@H](C)CC)C(=O)N(C)CC(=O)N(C)[C@H]3CC[C@@H](C)CN(C3=O)[C@@H](Cc3ccc(C(F)(F)F)cc3)C(=O)N(C)CC(=O)N[C@@H](CCc3cc(F)c(C(F)(F)F)c(F)c3)C(=O)N2C1 [PP1371],A (a compound having 10 or more and less than 20 is denoted as A),B (a compound having 3 or more and less than 10 is denoted as B)
